Test results from patent publication US20020111274A1, “1-alkyl-3-[1-(substituted phenyl) benzotriazol-6-yl] uracils” (BASF Aktiengesellschaft, priority 2000, published 2002).

What was measured:
Design in all cases: scale not given here
[1] = tested on: ABUTH Velvetleaf; test: Postemergence herbicidal evaluation, ABUTH; format: in vivo, Abutilon theophrasti, Medic.; settings: postemergence spray, rated about two-three weeks after treatment
Procedure, shortened: (§1)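 Two-week-old seedlings sprayed postemergence with compound in 80/20 acetone/water plus 1.0% methylated seed oil, at about 0.006–0.400 kg/ha, through a nozzle at 40 psi. Plants kept under greenhouse conditions and visually rated about two–three weeks after treatment; ratings from repeat tests averaged.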

[2] = tested on: AMBEL Ragweed, Common; test: Postemergence herbicidal evaluation, AMBEL; format: in vivo, Ambrosia artemisifolia, L.; settings: postemergence spray, rated about two-three weeks after treatment
Procedure, shortened: as §1

[3] = tested on: CASOB Sicklepod; test: Postemergence herbicidal evaluation, CASOB; format: in vivo, Cassia obtusifolia, L.; settings: postemergence spray, rated about two-three weeks after treatment
Procedure, shortened: as §1

[4] = tested on: CHEAL Lambsquarters, Common; test: Postemergence herbicidal evaluation, CHEAL; format: in vivo, Chenopodium album, L.; settings: postemergence spray, rated about two-three weeks after treatment
Procedure, shortened: as §1

[5] = tested on: ECHOG Barnyardgrass; test: Postemergence herbicidal evaluation, ECHOG; format: in vivo, Echinochloa crus-galli, (L.) Beau; settings: postemergence spray, rated about two-three weeks after treatment
Procedure, shortened: as §1

[6] = tested on: GALAP Galium; test: Postemergence herbicidal evaluation, GALAP; format: in vivo, Galium aparine; settings: postemergence spray, rated about two-three weeks after treatment
Procedure, shortened: as §1

[7] = tested on: IPOHE Morningglory, Ivyleaf; test: Postemergence herbicidal evaluation, IPOHE; format: in vivo, Ipomoea hederacea, (L.) Jacq.; settings: postemergence spray, rated about two-three weeks after treatment
Procedure, shortened: as §1

[8] = tested on: SETVI Foxtail, Green; test: Postemergence herbicidal evaluation, SETVI; format: in vivo, Setaria viridis, (L.) Beau; settings: postemergence spray, rated about two-three weeks after treatment
Procedure, shortened: as §1

[9] = tested on: GLXMAW Soybean, Williams; test: Postemergence herbicidal evaluation, GLXMAW; format: in vivo, Glycine max, (L.) Merr. cv Williams; settings: postemergence spray, rated about two-three weeks after treatment
Procedure, shortened: as §1

[10] = tested on: TRZAWR Wheat, Winter, cv Riband; test: Postemergence herbicidal evaluation, TRZAWR; format: in vivo, Triticum aestivum; settings: postemergence spray, rated about two-three weeks after treatment
Procedure, shortened: as §1

[11] = tested on: ORYSAT Rice, Tebonnet; test: Postemergence herbicidal evaluation, ORYSAT; format: in vivo, Oryza sativa, (L.); settings: postemergence spray, rated about two-three weeks after treatment
Procedure, shortened: as §1

[12] = tested on: ZEAMX Corn, Field; test: Postemergence herbicidal evaluation, ZEAMX; format: in vivo, Zea mays, L. (Sammel-Bezeichnung); settings: postemergence spray, rated about two-three weeks after treatment
Procedure, shortened: as §1

[13] = tested on: ABUTH Velvetleaf; test: Preemergence herbicidal evaluation, ABUTH; format: in vivo, Abutilon theophrasti, Medic.; settings: preemergence
Procedure, shortened: (§2)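 First, seed is blended with potting soil and sown over roughly an inch of soil per cup. Next, the surface is sprayed with an aqueous acetone solution delivering about 0.013–0.800 kg/ha. Finally, cups are grown in the greenhouse and rated after 4–5 weeks.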

[14] = tested on: AMBEL Ragweed, Common; test: Preemergence herbicidal evaluation, AMBEL; format: in vivo, Ambrosia artemisifolia, L.; settings: preemergence
Procedure, shortened: as §2

[15] = tested on: CASOB Sicklepod; test: Preemergence herbicidal evaluation, CASOB; format: in vivo, Cassia obtusifolia, L.; settings: preemergence
Procedure, shortened: as §2

[16] = tested on: CHEAL Lambsquarters, Common; test: Preemergence herbicidal evaluation, CHEAL; format: in vivo, Chenopodium album, L.; settings: preemergence
Procedure, shortened: as §2

[17] = tested on: ECHOG Barnyardgrass; test: Preemergence herbicidal evaluation, ECHOG; format: in vivo, Echinochloa crus-galli, (L.) Beau; settings: preemergence
Procedure, shortened: as §2

[18] = tested on: GALAP Galium; test: Preemergence herbicidal evaluation, GALAP; format: in vivo, Galium aparine; settings: preemergence
Procedure, shortened: as §2

[19] = tested on: IPOHE Morningglory, Ivyleaf; test: Preemergence herbicidal evaluation, IPOHE; format: in vivo, Ipomoea hederacea, (L.) Jacq.; settings: preemergence
Procedure, shortened: as §2

[20] = tested on: SETVI Foxtail, Green; test: Preemergence herbicidal evaluation, SETVI; format: in vivo, Setaria viridis, (L.) Beau; settings: preemergence
Procedure, shortened: as §2

[21] = tested on: GLXMAW Soybean, Williams; test: Preemergence herbicidal evaluation, GLXMAW; format: in vivo, Glycine max, (L.) Merr. cv Williams; settings: preemergence
Procedure, shortened: as §2

[22] = tested on: TRZAWR Wheat, Winter, cv Riband; test: Preemergence herbicidal evaluation, TRZAWR; format: in vivo, Triticum aestivum; settings: preemergence
Procedure, shortened: as §2

[23] = tested on: ORYSAT Rice, Tebonnet; test: Preemergence herbicidal evaluation, ORYSAT; format: in vivo, Oryza sativa, (L.); settings: preemergence
Procedure, shortened: as §2

[24] = tested on: ZEAMX Corn, Field; test: Preemergence herbicidal evaluation, ZEAMX; format: in vivo, Zea mays, L. (Sammel-Bezeichnung); settings: preemergence
Procedure, shortened: as §2

SMILES: CCc1ccccc1-n1nnc2cc(F)c(-n3c(=O)cc(C(F)(F)F)n(C)c3=O)cc21 [Example 25]
- Postemergence herbicidal rating ABUTH ([1]; 0.008 kg/ha): 6.0
- Postemergence herbicidal rating ABUTH ([1]; 0.016 kg/ha): 8.0
- Postemergence herbicidal rating ABUTH ([1]; 0.032 kg/ha): 9.0
- Postemergence herbicidal rating ABUTH ([1]; 0.062 kg/ha): 9.0
- Postemergence herbicidal rating AMBEL ([2]; 0.008 kg/ha): 0.0
- Postemergence herbicidal rating AMBEL ([2]; 0.016 kg/ha): 0.0
- Postemergence herbicidal rating AMBEL ([2]; 0.032 kg/ha): 2.0
- Postemergence herbicidal rating AMBEL ([2]; 0.062 kg/ha): 2.0
- Postemergence herbicidal rating CASOB ([3]; 0.008 kg/ha): 0.0
- Postemergence herbicidal rating CASOB ([3]; 0.016 kg/ha): 0.0
- Postemergence herbicidal rating CASOB ([3]; 0.032 kg/ha): 0.0
- Postemergence herbicidal rating CASOB ([3]; 0.062 kg/ha): 1.0
- Postemergence herbicidal rating CHEAL ([4]; 0.008 kg/ha): 3.0
- Postemergence herbicidal rating CHEAL ([4]; 0.016 kg/ha): 9.0
- Postemergence herbicidal rating CHEAL ([4]; 0.032 kg/ha): 9.0
- Postemergence herbicidal rating CHEAL ([4]; 0.062 kg/ha): 9.0
- Postemergence herbicidal rating ECHCG ([5]; 0.008 kg/ha): 0.0
- Postemergence herbicidal rating ECHCG ([5]; 0.016 kg/ha): 0.0
- Postemergence herbicidal rating ECHCG ([5]; 0.032 kg/ha): 0.0
- Postemergence herbicidal rating ECHCG ([5]; 0.062 kg/ha): 0.0
- Postemergence herbicidal rating GALAP ([6]; 0.008 kg/ha): 0.0
- Postemergence herbicidal rating GALAP ([6]; 0.016 kg/ha): 0.0
- Postemergence herbicidal rating GALAP ([6]; 0.032 kg/ha): 4.0
- Postemergence herbicidal rating GALAP ([6]; 0.062 kg/ha): 4.0
- Postemergence herbicidal rating IPOHE ([7]; 0.008 kg/ha): 2.0
- Postemergence herbicidal rating IPOHE ([7]; 0.016 kg/ha): 3.0
- Postemergence herbicidal rating IPOHE ([7]; 0.032 kg/ha): 9.0
- Postemergence herbicidal rating IPOHE ([7]; 0.062 kg/ha): 9.0
- Postemergence herbicidal rating SETVI ([8]; 0.008 kg/ha): 0.0
- Postemergence herbicidal rating SETVI ([8]; 0.016 kg/ha): 0.0
- Postemergence herbicidal rating SETVI ([8]; 0.032 kg/ha): 3.0
- Postemergence herbicidal rating SETVI ([8]; 0.062 kg/ha): 7.0
- Postemergence herbicidal rating GLXMAW ([9]; 0.008 kg/ha): 3.0
- Postemergence herbicidal rating GLXMAW ([9]; 0.016 kg/ha): 4.5
- Postemergence herbicidal rating GLXMAW ([9]; 0.032 kg/ha): 5.0
- Postemergence herbicidal rating GLXMAW ([9]; 0.062 kg/ha): 6.5
- Postemergence herbicidal rating TRZAWR ([10]; 0.008 kg/ha): 1.5
- Postemergence herbicidal rating TRZAWR ([10]; 0.016 kg/ha): 2.5
- Postemergence herbicidal rating TRZAWR ([10]; 0.032 kg/ha): 3.0
- Postemergence herbicidal rating TRZAWR ([10]; 0.062 kg/ha): 3.0
- Postemergence herbicidal rating ORYSAT ([11]; 0.008 kg/ha): 0.5
- Postemergence herbicidal rating ORYSAT ([11]; 0.016 kg/ha): 1.0
- Postemergence herbicidal rating ORYSAT ([11]; 0.032 kg/ha): 1.5
- Postemergence herbicidal rating ORYSAT ([11]; 0.062 kg/ha): 2.0
- Postemergence herbicidal rating ZEAMX ([12]; 0.008 kg/ha): 3.0
- Postemergence herbicidal rating ZEAMX ([12]; 0.016 kg/ha): 3.5
- Postemergence herbicidal rating ZEAMX ([12]; 0.032 kg/ha): 4.0
- Postemergence herbicidal rating ZEAMX ([12]; 0.062 kg/ha): 5.0
- ABUTH herbicidal rating ([13]; rate 0.016 kg/ha): 3.0
- ABUTH herbicidal rating ([13]; rate 0.032 kg/ha): 6.0
- ABUTH herbicidal rating ([13]; rate 0.062 kg/ha): 6.0
- ABUTH herbicidal rating ([13]; rate 0.125 kg/ha): 9.0
- AMBEL herbicidal rating ([14]; rate 0.016 kg/ha): 0.0
- AMBEL herbicidal rating ([14]; rate 0.032 kg/ha): 0.0
- AMBEL herbicidal rating ([14]; rate 0.062 kg/ha): 1.0
- AMBEL herbicidal rating ([14]; rate 0.125 kg/ha): 3.5
- CASOB herbicidal rating ([15]; rate 0.016 kg/ha): 0.0
- CASOB herbicidal rating ([15]; rate 0.032 kg/ha): 0.0
- CASOB herbicidal rating ([15]; rate 0.062 kg/ha): 1.5
- CASOB herbicidal rating ([15]; rate 0.125 kg/ha): 2.0
- CHEAL herbicidal rating ([16]; rate 0.016 kg/ha): 9.0
- CHEAL herbicidal rating ([16]; rate 0.032 kg/ha): 9.0
- CHEAL herbicidal rating ([16]; rate 0.062 kg/ha): 9.0
- CHEAL herbicidal rating ([16]; rate 0.125 kg/ha): 9.0
- ECHCG herbicidal rating ([17]; rate 0.016 kg/ha): 0.0
- ECHCG herbicidal rating ([17]; rate 0.032 kg/ha): 0.0
- ECHCG herbicidal rating ([17]; rate 0.062 kg/ha): 2.0
- ECHCG herbicidal rating ([17]; rate 0.125 kg/ha): 8.0
- GALAP herbicidal rating ([18]; rate 0.016 kg/ha): 0.0
- GALAP herbicidal rating ([18]; rate 0.032 kg/ha): 0.0
- GALAP herbicidal rating ([18]; rate 0.062 kg/ha): 0.0
- GALAP herbicidal rating ([18]; rate 0.125 kg/ha): 0.0
- IPOHE herbicidal rating ([19]; rate 0.016 kg/ha): 0.0
- IPOHE herbicidal rating ([19]; rate 0.032 kg/ha): 4.5
- IPOHE herbicidal rating ([19]; rate 0.062 kg/ha): 5.5
- IPOHE herbicidal rating ([19]; rate 0.125 kg/ha): 6.5
- SETVI herbicidal rating ([20]; rate 0.016 kg/ha): 0.0
- SETVI herbicidal rating ([20]; rate 0.032 kg/ha): 3.5
- SETVI herbicidal rating ([20]; rate 0.062 kg/ha): 9.0
- SETVI herbicidal rating ([20]; rate 0.125 kg/ha): 9.0
- GLXMAW herbicidal rating ([21]; rate 0.016 kg/ha): 0.0
- GLXMAW herbicidal rating ([21]; rate 0.032 kg/ha): 0.0
- GLXMAW herbicidal rating ([21]; rate 0.062 kg/ha): 2.0
- GLXMAW herbicidal rating ([21]; rate 0.125 kg/ha): 1.5
- TRZAWR herbicidal rating ([22]; rate 0.016 kg/ha): 0.0
- TRZAWR herbicidal rating ([22]; rate 0.032 kg/ha): 0.0
- TRZAWR herbicidal rating ([22]; rate 0.062 kg/ha): 0.0
- TRZAWR herbicidal rating ([22]; rate 0.125 kg/ha): 2.0
- ORYSAT herbicidal rating ([23]; rate 0.016 kg/ha): 0.0
- ORYSAT herbicidal rating ([23]; rate 0.032 kg/ha): 0.0
- ORYSAT herbicidal rating ([23]; rate 0.062 kg/ha): 0.0
- ORYSAT herbicidal rating ([23]; rate 0.125 kg/ha): 1.5
- ZEAMX herbicidal rating ([24]; rate 0.016 kg/ha): 0.0
- ZEAMX herbicidal rating ([24]; rate 0.032 kg/ha): 0.0
- ZEAMX herbicidal rating ([24]; rate 0.062 kg/ha): 2.0
- ZEAMX herbicidal rating ([24]; rate 0.125 kg/ha): 4.0
